Tests used:
[1] = test system: CHO-AA8; assay: cells; settings: Cricetulus griseus, CHO-AA8, 18 h
Description: Growth inhibition of aerobic AA8 cells, after 18 hours exposure

[2] = physchem; settings: aqueous solution
Description: Affinity constant determined in aqueous solution

[3] = physchem; settings: aqueous solution; remark: listed apart in the source
Description: Pka was determined in aqueous solution

pKa [2]	pKa [3]	SMILES	IC50 [1]
6.64		COc1ccc([N+](=O)[O-])c2c(NCCCN(C)C)c(C)c(C)nc12	166 µM
6.37		Cc1cc(C)c2nccc(NCCCN(C)C)c2c1[N+](=O)[O-]	74 µM
6.2		CCc1ccc2nccc(NCCCN(C)C)c2c1[N+](=O)[O-]	108 µM
6.25		COc1cc(OC)c2nccc(NCCCN(C)C)c2c1[N+](=O)[O-]	186 µM
6.78		O=[N+]([O-])c1cccc2nccc(NCCN3CCOCC3)c12	18 µM
7.1		COc1ccc([N+](=O)[O-])c2c(NCC(O)CO)ccnc12 (configuration not stated)	50 µM
6.67		Cc1nc2c(C)ccc([N+](=O)[O-])c2c(NCCCN(C)C)c1C	113 µM
	5.08	CN(C)CCNC(=O)c1ccc(NNc2ccnc3cccc([N+](=O)[O-])c23)cc1	13 µM

The remaining lines, values behind:

SMILES	pKa [2]	pKa [3]	IC50 [1]
Cc1ccc([N+](=O)[O-])c2c(NCC(O)CO)ccnc12 (configuration not stated)	7.2		110 µM
Cc1nc2cccc([N+](=O)[O-])c2c(NCCCN(C)C)c1C	6.64		47 µM
O=[N+]([O-])c1cccc2nccc(NCC(O)CO)c12 (configuration not stated)	6.81		33 µM
Cc1cnc2c(C)ccc([N+](=O)[O-])c2c1NCCCN(C)C	6.1		277 µM
Cc1ccc([N+](=O)[O-])c2c(NCCCN(C)C)cc(-c3ccccc3)nc12	5.43		12 µM
CCCCNc1ccnc2cccc([N+](=O)[O-])c12	7.18		9.6 µM
O=[N+]([O-])c1cccc2nccc(NCCCO)c12	7.06		26 µM
Cc1cnc2ccc(C)c([N+](=O)[O-])c2c1NCCCN(C)C		6.07	201 µM

From ChEMBL document CHEMBL1130320, “Hypoxia-selective antitumor agents. 15. Modification of rate of nitroreduction and extent of lysosomal uptake by polysubstitution of 4-(alkylamino)-5-nitroquinoline bioreductive drugs” (J Med Chem, 1997)
